Measured values: patent US20220105244A1, “METHODS AND COMPOSITIONS FOR PROTECTION OF BIOPROSTHETIC HEART VALVE TISSUE FROM GLYCATION AND ASSOCIATED PROTEIN INCORPORATION” (The Trustees of Columbia University in the City of New York, priority 2019, published 2022)

Assays:
[1] = tested on: glutaraldehyde-fixed bovine pericardium; test: Maillard browning of anti-glycation pre-treated tissue discs after in vitro glycation; details: for tissue browning due to aggressive glycation: 6 weeks anti-glycation pretreatment at 37° C. (1,5 at pH 9.0), 1-week 50 mM glyoxal, methylglyoxal or glyoxal+5% human serum albumin
Experimental: A general method flow chart is described below. First, standard 0.6% glutaraldehyde fixation protocol (+/−any additional technology, e.g., anti-calcification). Second, wash protocol in phosphate-buffered saline to remove residual unreacted glutaraldehyde or other compounds. Third, incubation in subject compounds dissolved in, for example, phosphate-buffered saline at 37° C. for 6 weeks. Fourth, wash protocol in phosphate-buffered saline to remove residual unreacted anti-glycation precursor. Fifth, storage (usually in 0.2% glutaraldehyde.
(§1) Anti-glycation pretreatments have been performed for 1-, 2-, 4-, and 6-week-long durations for both 1,5-dihydro-2H-pyrrol-2-one as well as 4-(1-methyl-1H-imidazol-4-yl)butanal, and diversified 1-week glycation reactions have been applied to these samples. Namely, these conditions are 50 mM glyoxal, 50 mM methylglyoxal, and 50 mM glyoxal+5% human serum albumin. An antibody for N-carboxyethyl lysine, a major product of methylglyoxal glycation, was utilized for immunohistochemical staining.
“Maillard browning” is a classic and straightforward visual indicator of glycation. Formation of glycation products causes brown hues to develop in glycated tissues and proteinaceous materials. As a preliminary endpoint for initial anti-glycation efficacy studies, the inventors sought to evaluate prevention of browning due to glycation in glutaraldehyde-fixed bovine pericardium, the most common bioprosthetic heart valve biomaterial (and also widely used in other bioprosthetic implants), by pretreatment with the designed anti-glycation compounds. Short term (3-day) and long-term (6-week) protective incubation durations at physiological temperature (37° C.) were chosen as a starting point. Anti-glycation was followed by extensive washing of tissue in phosphate-buffered saline (PBS) to remove any unreacted anti-glycation precursor and extreme glycation conditions (1-week incubation in 50 mM doses of either methylglyoxal or glyoxal, two of the most reactive physiologically-relevant glycation precursors, or 50 mM glyoxal+5% human serum albumin, which exacerbates browning). Treatments and evaluation of browning have been performed with 1,5-dihydro-2H-pyrrol-2-one (“1,5,” compound 3) and 4-(1H-Imidazol-4-yl)butanal (“4IB”).

[2] = tested on: N-carboxymethyl lysine (CML); test: Immunohistochemistry with anti-CML antibody after glyoxal glycation; set-up: species or system bovine
Experimental: As a preliminary specific chemical analysis, immunohistochemistry was performed using a standard anti-CML (AbCAM #ab27684 @ 1:5000 dilution) antibody to probe for the best-studied glycation product, N-carboxymethyl lysine, after control or anti-glycated glutaraldehyde-fixed bovine pericardium tissue discs were glycated under aggressive conditions known to efficiently generate CML (one week incubation at 37° C. in 50 mM glyoxal). Brown staining indicates presence of CML.

[3] = tested on: N-carboxyethyl lysine (CEL); test: Immunohistochemistry with antibody for N-carboxyethyl lysine after methylglyoxal glycation; set-up: species or system bovine; details: anti-glycated vs untreated tissue
Experimental: as §1

[4] = tested on: glutaraldehyde-fixed bovine pericardium (Glut-BP); test: Uptake of 14C-radiolabeled glyoxal by glut-BP; details: 6-week pre-incubation at 37° C., 1× (7.2 μmol/mg glut-BP); 24 hours at 37° C. in 50 mM 14C-glyoxal
Experimental: FIG. 9. Bar graph of the quantitation of uptake by glutaraldehyde-fixed bovine pericardium (Glut-BP) of radioactively-labeled glycation precursor after 24 hours of incubation at 37° C. in 50 mM ^14C-radiolabeled glyoxal. Glut-BP was either kept in phosphate-buffered saline solution (PBS) in storage at 4° C. or placed in pre-incubation at 37° C. in PBS, PBS+1×1,5-dihydro-2H-pyrrol-2-one at 7.2 μmol/mg glut-BP, or PBS+1×4-(1-methyl-1H-imidazol-4-yl)butanal at 7.2 μmol/mg glut-BP.
The above interpretations are supported by quantitation of uptake of glycation precursor by glut-BP using carbon-14-radiolabeled glyoxal, which indicates approximately 15% decreases in overall glycation versus by an extreme concentration (50 mM) of glyoxal in glut-BP pre-treated by 6-week incubation at 37° C. in PBS alone or 1×1,5 or 1×4IB, shown in FIG. 9.

Structure (SMILES) | protection against optical browning ([1]; 50 mM glyoxal, 50 mM methylglyoxal, or 50 mM glyoxal+5% HSA for 7 days at 37° C.) | tissue browning due to aggressive glycation [1] | incorporation of glycated (browned) albumin (tissue color, precursor alone vs precursor plus albumin) ([1]; 6 weeks pretreatment, 50 mM glyoxal+5% human serum albumin) | CML formation in response to glyoxal ([2]; anti-glycated vs untreated tissue) | CML formation ([2]; pretreatment for 6 weeks, one week incubation at 37° C. in 50 mM glyoxal) | CEL formation in response to methylglyoxal [3] | decrease in overall glycation (uptake of 14C-glyoxal) [4]
O=C1C=CCN1 [Compound 3, 1,5-dihydro-2H-pyrrol-2-one] | dramatic protection | dramatic diminishment of tissue browning | effectively blocks incorporation of glycated (browned) albumin | still formed similarly as in untreated tissue | not mitigated | still formed similarly as in untreated tissue | approximately 15%
O=CCCCc1c[nH]cn1 [Compound 5, 4-(1H-Imidazol-4-yl)butanal] |  | Protection from browning is less pronounced |  |  |  |  | approximately 15%
